Reference: the Kinase Knowledgebase extract (Sharma et al. 2016)
pIC50: −log10 of the molar value.

target: MAPK14 (human) (UniProt Q16539); test: Assessment of MAPK14 Kinase Activity
Sequence (Q16539 whole entry, looked up): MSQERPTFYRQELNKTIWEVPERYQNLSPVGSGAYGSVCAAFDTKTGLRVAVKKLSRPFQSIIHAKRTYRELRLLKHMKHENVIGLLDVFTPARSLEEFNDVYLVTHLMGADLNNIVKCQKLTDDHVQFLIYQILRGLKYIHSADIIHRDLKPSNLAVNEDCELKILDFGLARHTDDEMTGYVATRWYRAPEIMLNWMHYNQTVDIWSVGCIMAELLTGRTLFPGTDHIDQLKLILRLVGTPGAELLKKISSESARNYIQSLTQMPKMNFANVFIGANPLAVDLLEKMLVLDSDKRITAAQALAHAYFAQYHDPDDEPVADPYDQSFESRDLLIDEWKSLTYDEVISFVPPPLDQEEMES

| Structure (SMILES) | pIC50 |
| --- | --- |
| Cc1ccc(-c2cc(NC(=O)Nc3sc(C(C)(C)C)cc3C(=O)N3CCNC(=O)C3(C)C)ccc2C)nn1 | > 7.00 |
| CC(C)(C)c1cc(C(=O)N2CCNC(=O)C2(C)C)c(NC(=O)Nc2cccc(-c3cnco3)c2)s1 | > 7.00 |
| Cc1ccc(NC(=O)Nc2sc(C(C)(C)C)cc2C(=O)N2CCNC(=O)C2(C)C)cc1C#C[Si](C)(C)C | > 7.00 |
| Cc1ccc(NC(=O)Nc2cc(C(C)(C)C)sc2C(=O)N2CCNC(=O)C2(C)C)cc1-c1ccc(CN2CCOCC2)nc1 | > 7.00 |
| Cc1ccc(NC(=O)Nc2cn(C(C)(C)C)nc2C(=O)N2CCNC(=O)C2(C)C)cc1-c1ccc(CN2CCOCC2)cn1 | > 7.00 |
| Cc1ccc(NC(=O)Nc2sc(C(C)(C)C)cc2C(=O)N2CCN(C(=O)CN(C)C)CC2)cc1-c1cccnc1 | 6.00 to 7.00 |
| CCc1ccc(-c2cc(NC(=O)Nc3sc(C(C)(C)C)cc3C(=O)N3CCNC(=O)C3(C)C)ccc2C)nc1 | > 7.00 |
| Cc1ccc(NC(=O)Nc2cc(C(C)(C)C)sc2C(=O)N2CCN(C)C(=O)C2)cc1-c1ccc(CN2CCOCC2)nc1 | > 7.00 |
| Cc1nnc(CN2CCN(C(=O)c3cc(C(C)(C)C)sc3NC(=O)Nc3ccc(C)c(-c4ccncc4)c3)C(C)(C)C2=O)o1 | > 7.00 |
| Cc1ccc(NC(=O)Nc2sc(C(C)(C)C)cc2C(=O)N2CCNC(=O)C2(C)C)cc1-c1ccc(CN2CCOCC2)cn1 | > 7.00 |
| CCc1ccc(-c2cc(NC(=O)Nc3cn(C(C)(C)C)nc3C(=O)N3CCN(C)C(=O)C3(C)C)ccc2C)cn1 | > 7.00 |
| Cc1ccc(NC(=O)Nc2sc(C(C)(C)C)cc2C(=O)N2CCNC(=O)C2(C)C)cc1-c1ccc(N2CCOCC2)nc1 | > 7.00 |
| Cc1ccc(NC(=O)Nc2cc(C(C)(C)C)sc2C(=O)N2CCN(C)C(=O)C2(C)C)cc1-c1ccc(CN2CCOCC2)nc1 | > 7.00 |
| Cc1ccc(NC(=O)Nc2sc(C(C)(C)C)cc2C(=O)N2CCNC(=O)C2(C)C)cc1-c1ccc(OCCCc2ccccn2)nc1 | > 7.00 |
| COc1ccc(NC(=O)Nc2sc(C(C)(C)C)cc2C(=O)N2CCNC(=O)C2(C)C)cc1-c1ccncc1 | > 7.00 |
| CCNC(=O)c1ccc(-c2cc(NC(=O)Nc3cc(C(C)(C)C)sc3C(=O)N3CCNC(=O)C3(C)C)ccc2C)cn1 | > 7.00 |

| Structure (SMILES) | pIC50 |
| --- | --- |
| Cc1ccc(NC(=O)Nc2sc(C(C)(C)C)cc2C(=O)N2CCNC(=O)C2(C)C)cc1C#CCN1CCOCC1 | > 7.00 |
| Cc1ccc(-c2ccc(N3CCOCC3)nc2)cc1NC(=O)Nc1sc(C(C)(C)C)cc1C(=O)N1CCNC(=O)C1(C)C | > 7.00 |
| CN(C)CCOc1ccc(-c2cccc(NC(=O)Nc3sc(C(C)(C)C)cc3C(=O)N3CCNC(=O)C3(C)C)c2)cn1 | > 7.00 |
| Cc1ccc(NC(=O)Nc2sc(C(C)(C)C)cc2C(=O)N2CCNC(=O)C2(C)C)cc1-c1cccc[n+]1[O-] | > 7.00 |
| Cc1ccc(NC(=O)Nc2sc(C(C)(C)C)cc2C(=O)N2CCNC(=O)C2(C)C)cc1-c1cc[n+]([O-])cc1 | > 7.00 |
| CN1CCN(CCCOc2ccc(-c3cccc(NC(=O)Nc4sc(C(C)(C)C)cc4C(=O)N4CCNC(=O)C4(C)C)c3)cn2)CC1 | > 7.00 |
| Cc1ccc(NC(=O)Nc2sc(C(C)(C)C)cc2C(=O)N2CCNC(=O)C2(C)C)cc1-c1ccccn1 | > 7.00 |
| Cc1ccc(NC(=O)Nc2sc(C(C)(C)C)cc2C(=O)N2CCNC(=O)C2(C)C)cc1C#CCOC1CCOCC1 | > 7.00 |
| Cc1ccc(NC(=O)Nc2cn(C(C)(C)C)nc2C(=O)N2CCNC(=O)C2(C)C)cc1-c1cccnc1 | > 7.00 |
| Cc1ccc(NC(=O)Nc2sc(C(C)(C)C)cc2C(=O)N2CCNC(=O)C2(C)C)cc1C#N | > 7.00 |
| CC(C)(C)c1cc(C(=O)N2CCNC(=O)C2(C)C)c(NC(=O)Nc2cccc(-c3ccnc(F)c3)c2)s1 | > 7.00 |
| Cc1ccc(NC(=O)Nc2cc(C(C)(C)C)oc2C(=O)N2CCN(C)C(=O)C2(C)C)cc1-c1ccc(CN2CCOCC2)cn1 | > 7.00 |
| Cc1ccc(NC(=O)Nc2sc(C(C)(C)C)cc2C(=O)N2CCC(=O)N(C)CC2)cc1-c1ccc(N2CCOCC2)cn1 | > 7.00 |
| Cc1ccc(NC(=O)Nc2sc(C(C)(C)C)cc2C(=O)N2CCNC(=O)C2(C)C)cc1-c1ccc(N2CCOCC2)cn1 | > 7.00 |
| CC(C)(C)c1cc(C(=O)N2CCNC(=O)C2(C)C)c(NC(=O)Nc2cccc(-c3ccc(OCCCN4CCOCC4)nc3)c2)s1 | > 7.00 |

Next, values leading:

| pIC50 | Structure (SMILES) |
| --- | --- |
| > 7.00 | Cc1ccc(NC(=O)Nc2sc(C(C)(C)C)cc2C(=O)N2CCNC(=O)C2(C)C)cc1-c1ccc(N2CCC(N)C2)nc1 (stereo not given) |
| > 7.00 | CCN(CC)Cc1ccc(-c2cc(NC(=O)Nc3sc(C(C)(C)C)cc3C(=O)N3CCN(C)C(=O)C3(C)C)ccc2C)cn1 |
| > 7.00 | CCNC(=O)c1ccc(-c2cc(NC(=O)Nc3cc(C(C)(C)C)sc3C(=O)N3CCN(C)C(=O)C3(C)C)ccc2C)cn1 |
| > 7.00 | Cc1ccc(NC(=O)Nc2sc(C(C)(C)C)cc2C(=O)N2CCN(C)C(=O)C2(C)C)cc1-c1ccc(N2CCOCC2)nc1 |
| > 7.00 | CCc1ccc(-c2cc(NC(=O)Nc3sc(C(C)(C)C)cc3C(=O)N3CCN(C)C(=O)C3(C)C)ccc2C)nc1 |
| > 7.00 | COc1ccc(-c2cc(NC(=O)Nc3sc(C(C)(C)C)cc3C(=O)N3CCC(=O)N(C)CC3)ccc2C)cn1 |
| > 7.00 | CCNC(=O)c1ccc(-c2cc(NC(=O)Nc3sc(C(C)(C)C)cc3C(=O)N3CCNC(=O)C3(C)C)ccc2C)cn1 |
| > 7.00 | CCc1ccc(-c2cc(NC(=O)Nc3sc(C(C)(C)C)cc3C(=O)N3CCN(C)C(=O)C3(C)C)cc(F)c2C)cn1 |
| > 7.00 | Cc1ccc(NC(=O)Nc2sc(C(C)(C)C)cc2C(=O)N2CCN(C)C(=O)C2(C)C)cc1-c1ccc(C(C)(C)O)nc1 |
| > 7.00 | Cc1ccc(NC(=O)Nc2sc(C(C)(C)C)cc2C(=O)N2CCN(C)C(=O)C2(C)C)cc1-c1cnc(NCC(O)CO)nc1 (stereo not given) |
| > 7.00 | Cc1ccc(NC(=O)Nc2sc(C(C)(C)C)cc2C(=O)N2CCNC(=O)C2(C)C)cc1-c1ccc(OCCCN(C)C)nc1 |
| > 7.00 | COC(=O)CN1CCN(C(=O)c2cc(C(C)(C)C)sc2NC(=O)Nc2ccc(C)c(-c3ccncc3)c2)C(C)(C)C1=O |
| > 7.00 | CCc1ccc(-c2cc(NC(=O)Nc3sc(C(C)(C)C)cc3C(=O)N3CCNC(=O)C3(C)C)cc(F)c2C)cn1 |
| > 7.00 | COc1ccc(-c2cc(NC(=O)Nc3sc(C(C)(C)C)cc3C(=O)N3CCN(C)C(=O)C3(C)C)c(F)cc2C)cn1 |
| > 7.00 | CNC(=O)c1ccc(-c2cc(NC(=O)Nc3sc(C(C)(C)C)cc3C(=O)N3CCNC(=O)C3(C)C)ccc2C)cn1 |
| > 7.00 | Cc1ccc(NC(=O)Nc2sc(C(C)(C)C)cc2C(=O)N2CCN(C)C(=O)C2(C)C)cc1-c1ccc(C(=O)N2CCOCC2)nc1 |
| > 7.00 | COc1ccc(-c2cc(NC(=O)Nc3cc(C(C)(C)C)sc3C(=O)N3CCN(C)C(=O)C3(C)C)ccc2C)cn1 |
| > 7.00 | Cc1ccc(NC(=O)Nc2sc(C(C)(C)C)cc2C(=O)N2CCN(C)C(=O)C2(C)C)cc1-c1ccc(N2CCN(C)CC2)nc1 |
| > 7.00 | CCNC(=O)c1ccc(-c2cc(NC(=O)Nc3sc(C(C)(C)C)cc3C(=O)N3CCN(C)C(=O)C3(C)C)ccc2C)cn1 |
| > 7.00 | Cc1ccc(NC(=O)Nc2sc(C(C)(C)C)cc2C(=O)N2CCNC(=O)C2(C)C)cc1-c1ccc(OCCCN2CCOCC2)nc1 |
| > 7.00 | Cc1ccc(NC(=O)Nc2sc(C(C)(C)C)cc2C(=O)N2CCN(CCN(C)C)C(=O)C2(C)C)cc1-c1cccnc1 |
| > 7.00 | COc1ccc(-c2cc(NC(=O)Nc3sc(C(C)(C)C)cc3C(=O)N3CCN(C)C(=O)C3(C)C)cc(F)c2C)cn1 |

| pIC50 | Structure (SMILES) |
| --- | --- |
| > 7.00 | Cc1ccc(NC(=O)Nc2sc(C(C)(C)C)cc2C(=O)N2CCNC(=O)C2(C)C)cc1-c1ccc(OCCCN2CCN(C)CC2)nc1 |
| > 7.00 | Cc1ccc(NC(=O)Nc2sc(C(C)(C)C)cc2C(=O)N2CCN(C)C(=O)C2(C)C)cc1-c1ccc(OC(C)C)nc1 |
| > 7.00 | COc1ccc(-c2cc(NC(=O)Nc3cc(C(C)(C)C)sc3C(=O)N3CCN(CCO)C(=O)C3(C)C)ccc2C)cn1 |
| > 7.00 | CC(C)(C)c1cc(C(=O)N2CCNC(=O)C2(C)C)c(NC(=O)Nc2ccc(F)c(-c3ccc(OCCN4CCOCC4)nc3)c2)s1 |
| > 7.00 | Cc1nnc(-c2ccc(-c3cc(NC(=O)Nc4sc(C(C)(C)C)cc4C(=O)N4CCN(C)C(=O)C4(C)C)ccc3C)cn2)o1 |
| > 7.00 | COc1ccc(-c2cc(NC(=O)Nc3sc(C(C)(C)C)cc3C(=O)N3CCNC(=O)C3(C)C)ccc2C)nc1 |
| > 7.00 | Cc1ccc(NC(=O)Nc2sc(C(C)(C)C)cc2C(=O)N2CCNC(=O)C2(C)C)cc1-c1ccc(NCC(C)C)nc1 |
| > 7.00 | CON(C)C(=O)c1ccc(-c2cc(NC(=O)Nc3sc(C(C)(C)C)cc3C(=O)N3CCN(C)C(=O)C3(C)C)ccc2C)cn1 |
| > 7.00 | CC(=O)c1ccc(-c2cc(NC(=O)Nc3sc(C(C)(C)C)cc3C(=O)N3CCNC(=O)C3(C)C)ccc2C)cn1 |
| > 7.00 | CCOc1ccc(-c2cc(NC(=O)Nc3cn(C(C)(C)C)nc3C(=O)N3CCN(C)C(=O)C3(C)C)ccc2C)cn1 |
| 6.00 to 7.00 | CCc1ccc(-c2cc(NC(=O)Nc3sc(C(C)(C)C)cc3C(=O)N3CCN(CCN(C)C)C(=O)C3(C)C)ccc2C)cn1 |
| > 7.00 | Cc1ccc(NC(=O)Nc2sc(C(C)(C)C)cc2C(=O)N2CCN(C)C(=O)C2(C)C)cc1-c1ccc(C(C)O)nc1 (stereo not given) |
| > 7.00 | Cc1ccc(NC(=O)Nc2sc(C(C)(C)C)cc2C(=O)N2CCNC(=O)C2(C)C)cc1-c1ccc(N2CCC(N(C)C)C2)nc1 (stereo not given) |
| > 7.00 | Cc1nnc(-c2ccc(-c3cc(NC(=O)Nc4sc(C(C)(C)C)nc4C(=O)N4CCN(C)C(=O)C4(C)C)ccc3C)cn2)o1 |
| > 7.00 | Cc1ccc(NC(=O)Nc2sc(C(C)(C)C)cc2C(=O)N2CCN(C)C(=O)C2(C)C)cc1-c1ccc(CN2CCCC2)nc1 |
| > 7.00 | Cc1ccc(NC(=O)Nc2sc(C(C)(C)C)cc2C(=O)N2CCNC(=O)C2(C)C)cc1-c1ccc(CN)nc1 |
| > 7.00 | Cc1nnc(-c2ccc(-c3cc(NC(=O)Nc4cc(C(C)(C)C)sc4C(=O)N4CCN(C)C(=O)C4(C)C)ccc3C)cn2)o1 |
| > 7.00 | Cc1ccc(NC(=O)Nc2sc(C(C)(C)C)cc2C(=O)N2CCNC(=O)C2(C)C)cc1-c1cccnc1 |
| > 7.00 | Cc1ccc(NC(=O)Nc2sc(C(C)(C)C)cc2C(=O)N2CCNC(=O)C2(C)C)cc1-c1ccc(N(C)C)nc1 |
| > 7.00 | Cc1ccc(NC(=O)Nc2sc(C(C)(C)C)cc2C(=O)N2CCNC(=O)C2(C)C)cc1-c1ccc(C(C)O)nc1 (stereo not given) |
| > 7.00 | COCCOc1ccc(-c2cc(NC(=O)Nc3sc(C(C)(C)C)cc3C(=O)N3CCN(C)C(=O)C3(C)C)ccc2C)cn1 |
| > 7.00 | CCc1ccc(-c2cc(NC(=O)Nc3cc(C(C)(C)C)sc3C(=O)N3CCN(C)C(=O)C3(C)C)ccc2C)cn1 |
